# Data from paper PMC11796312, “Multifunctional, Fluorene‐Based Modulator of Cholinergic and GABAergic Neurotransmission as a Novel Drug Candidate for Palliative Treatment of Alzheimer's Disease” (Angewandte Chemie (International Ed. in English), 2024).
# Read-outs that look alike come from different tables or passages of the source.
# What was measured:
# [1] = target: mGAT1 (Mus musculus, UniProt P31648); assay: [3H]GABA uptake assay, mGAT1; format: cell-based
# [2] = target: T1, mGAT4 (Mus musculus, UniProt P31650); assay: [3H]GABA uptake assay, mGAT4; format: cell-based
# T1 sequence (P31650 1-627): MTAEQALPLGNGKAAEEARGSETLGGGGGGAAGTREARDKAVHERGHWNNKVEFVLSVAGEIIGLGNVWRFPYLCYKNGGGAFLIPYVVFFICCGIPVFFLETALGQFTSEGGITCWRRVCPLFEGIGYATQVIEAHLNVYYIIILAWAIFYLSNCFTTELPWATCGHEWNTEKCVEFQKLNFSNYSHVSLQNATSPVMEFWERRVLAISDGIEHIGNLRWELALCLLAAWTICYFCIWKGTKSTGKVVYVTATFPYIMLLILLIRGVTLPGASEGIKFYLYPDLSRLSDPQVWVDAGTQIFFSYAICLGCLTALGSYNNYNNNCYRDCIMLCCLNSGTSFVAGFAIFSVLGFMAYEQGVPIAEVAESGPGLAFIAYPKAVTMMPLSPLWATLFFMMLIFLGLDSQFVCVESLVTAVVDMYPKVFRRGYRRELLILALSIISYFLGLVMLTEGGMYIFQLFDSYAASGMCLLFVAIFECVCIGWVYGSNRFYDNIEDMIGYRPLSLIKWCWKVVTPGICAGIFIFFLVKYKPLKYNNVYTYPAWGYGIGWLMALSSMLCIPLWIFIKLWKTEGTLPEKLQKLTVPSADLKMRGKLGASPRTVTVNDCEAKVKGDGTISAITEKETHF
# [3] = target: T2, human serotonin 5-HT1A receptor (Homo sapiens, UniProt P08908); assay: cAMP 5-HT1A functional assay; format: cell-based
# T2 construct: host or cells: CHO-K1
# T2 sequence (P08908 whole entry): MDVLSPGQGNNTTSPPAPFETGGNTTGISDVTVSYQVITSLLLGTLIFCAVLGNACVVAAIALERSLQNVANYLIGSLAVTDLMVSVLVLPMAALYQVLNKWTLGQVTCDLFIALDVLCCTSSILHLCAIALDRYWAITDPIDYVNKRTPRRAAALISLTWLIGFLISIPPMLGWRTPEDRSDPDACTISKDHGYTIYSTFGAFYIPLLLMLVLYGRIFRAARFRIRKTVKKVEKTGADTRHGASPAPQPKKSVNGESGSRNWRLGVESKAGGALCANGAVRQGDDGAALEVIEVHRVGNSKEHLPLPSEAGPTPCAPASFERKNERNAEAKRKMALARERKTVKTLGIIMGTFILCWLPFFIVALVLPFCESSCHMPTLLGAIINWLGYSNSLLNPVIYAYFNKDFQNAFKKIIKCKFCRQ
# Protocol: Functional assays for 5-HT1A receptor
# Tested and reference compounds were dissolved in DMSO to the concentration of 10 mM.
# Dilutions were prepared in a 96-well microplate in assay buffers. For 5-HT1A receptors,
# adenylyl cyclase activity was determined using cryopreserved CHO-K1 cells expressing the
# The final concentration of DMSO in the test solutions was
# The functional assay was performed with the CHO-K1 cells with expression of the 5-HT1A
# The cells were cultured under selective conditions (400 μg/mL Geneticin G418)
# (PerkinElmer). Thawed cells were resuspended in stimulation buffer (HBSS, 5 mM HEPES,
# The same volume (10 μL) of cell
# suspension was added to tested compounds with 10 μM forskolin. Samples were loaded onto
# a white opaque half-area 96-well microplate. Cell stimulation was performed for 40 min at
# room temperature. After incubation, cAMP measurements were performed with homogeneous
# time-resolved fluorescence resonance energy transfer (TR-FRET) immunoassay using the
# LANCE Ultra cAMP kit (PerkinElmer, USA). Ten microliters of EucAMP Tracer Working
# Solution and 10 μL of ULight-anti-cAMP Tracer Working Solution were added, mixed, and
# incubated for 1 h. The TR-FRET signal was read on an EnVision microplate reader
# (PerkinElmer, USA). Emax values were defined as the ligand response expressed as a […]
# which 50% of its maximal response was measured.
# [4] = Pharmacokinetic study after i.g. administration; format: in vivo; details: mice
# Protocol: Pharmacokinetic study after i.p. and i.g administration
# mg/kg), blood samples were collected from mice under deep terminal anesthesia directly by cardiac puncture into heparinized 1.5 mL tubes at selected time intervals.
# The samples were centrifuged at 3,000 × g for 10 min (10 °C), and the plasma samples were stored at -80 °C until the HPLC analysis.
# The blood in brain vessels would interfere with the assay of actual brain tissue concentrations.
# Therefore, the animals were perfused transcardially with saline solution (0.9% NaCl) for 5 min (10 mL/min). After perfusion, the skull was opened, and the brain was carefully removed and immediately stored at -80 °C until the HPLC analysis.
# Before analysis, 50 μL of plasma or brain homogenate was precipitated with an internal
# standard of 200 μL acetonitrile (ACN). The mixture was vortexed for 1 min at 1,500 rpm and
# centrifuged at 12,074 g for 5 min at 20 °C. The supernatant was then transferred to an
# injection vial and analyzed.
# mm ID (Phenomenex, Torrance, CA, USA), protected with a guard column SecurityGuard
# was performed in gradient elution mode with a flow rate of 0.6 mL/min and the following
# composition of mobile phase: A) 0.1% FA in water (v/v) and B) 0.1% FA in ACN/MeOH in
# The column was kept at 45 °C during
# analysis. Samples were held at 10 °C in a light-tight autosampler unit.
# Heated-Electrospray Ionization II interface (HESI-II) in positive ion mode was used with the
# following settings: spray voltage; +3.5 kV, S-lens RF level; +70 V, capillary temperature 350
# °C, auxiliary gas heater temperature; 350 °C, sheet, and auxiliary gas flow; 45 and 15
# arbitrary units, respectively. Full MS mode was used at resolution (m/𝛥m) ̴70,000 for
# Xcalibur software (v 4.0) was used for data evaluation.
# [5] = Stability in plasma (UHPLC-MS method validation); format: in vitro ADME; details: rat plasma
# Text: UHPLC-MS method for pharmacokinetics study
# Ultra high-performance liquid chromatography system consisting of Ultimate 3000 RS pump Dionex (Thermo Scientific, San Jose, CA, USA) coupled with high-resolution mass spectrometer with orbitrap analyzer (Q Exactive Focus, Thermo Scientific, San Jose, CA, USA) was used in quantitative analyses of 6 in plasma and brain homogenate. According to the EMA[43] and FDA[42] guidelines on Bioanalytical method validation, the method was fully validated for plasma and partially for brain homogenate. All the evaluated parameters met the […]
# Table S12. Summary of validation results (precision and accuracy) in plasma for five different concentrations - limit of quantitation(LLOQ), low (QC A), mid (QC B), high (QC C) a dilution (QC D) level. […]
# Stability evaluation in rat plasma as deviation from the reference value (100%)
# [6] = system: BuChE; details: 1 or 5 µM compound (printed '1 or 5 M'), vs DMSO
smiles,measurement,setting,value
O[C@H](CNCC1CC1)[C@H](Cc1ccccc1)NC1c2ccccc2-c2ccccc21 [Compound 6],IC50,[1],11 µM
same,IC50,[2],7.76 ± 0.36 µM
same,Emax,[3]; read-out: 5-HT1A agonist mode E max % [10^-5 M],15%
same,Emax,[3]; read-out: 5-HT1A antagonist mode E max %,16%
same,Kp,"[4]; ICR-CD1, mouse, brain and plasma, po, 10 mg/kg, 10 mg/kg i.g., read-out: Kp (AUCbrain/AUCplasma), brain-to-plasma ratio",1.98
same,Tmax,"[4]; ICR-CD1, mouse, brain, po, 10 mg/kg, 10 mg/kg i.g., read-out: brain Tmax (converted)",3.33 h
same,Cmax,"[4]; ICR-CD1, mouse, plasma, po, 10 mg/kg, 10 mg/kg i.g.",120 ± 30.7 ng/mL
same,half-life,"[4]; ICR-CD1, mouse, plasma, po, 10 mg/kg, 10 mg/kg i.g., plasma, read-out: Half-life",3.54 ± 0.449 h
same,Vd/F,"[4]; ICR-CD1, mouse, plasma, po, 10 mg/kg, 10 mg/kg i.g., plasma, read-out: Vss/F",120 ± 22.1 L/kg
same,Vd/F,"[4]; ICR-CD1, mouse, plasma, po, 10 mg/kg, 10 mg/kg i.g., plasma, read-out: Vz/F",102 ± 22.9 L/kg
same,Tmax,"[4]; ICR-CD1, mouse, plasma, po, 10 mg/kg, 10 mg/kg i.g., read-out: plasma Tmax (converted)",1.33 h
same,MRT,"[4]; ICR-CD1, mouse, po, 10 mg/kg i.g., plasma",6.08 h
same,k el,"[4]; ICR-CD1, mouse, po, 10 mg/kg i.g., plasma, read-out: λz (converted)",6e-05 s⁻¹
same,plasma AUCtotal i.g. as % of AUCtotal after i.p. administration of the same dose,[4]; 10 mg/kg,approximately 60%
same,brain AUCtotal,[4]; 10 mg/kg i.g.,"68,547.70 ± 9,216.46 min.ng/g"
same,brain Cmax,[4]; 10 mg/kg i.g.,158.63 ± 20.04 ng/g
same,plasma AUCtotal,[4]; 10 mg/kg i.g.,"34,630.80 ± 4,866.51 min.ng/mL"
same,CL,"[4]; 10 mg/kg i.g., plasma",320 ± 50 mL/min/kg
same,half-life,"[4]; 10 mg/kg i.g., plasma, 10 mg/kg",3.53 h
same,plasma Cmax,"[4]; 10 mg/kg i.g., 10 mg/kg",120 ng/mL
same,Autosampler stability % (24h),"[5]; QC B (33,50 ng/mL), vs reference value 100%","97,6 ± 1,5%"
same,Freeze-thaw stability % (3 cycles),[5]; QC B,"95,8% ± 4,0"
same,Long-term stability % (3 month),[5]; QC B,"109,9 ± 0,5%"
same,Autosampler stability % (24h),"[5]; QC C (452,73 ng/mL)","94,6 ± 2,5%"
same,Freeze-thaw stability % (3 cycles),[5]; QC C,"102,0 ± 4,7%"
same,Long-term stability % (3 month),[5]; QC C,"105,7 ± 2,2%"
same,Melting temperature (Tm) of BuChE,[6],increased Tm of BuChE
